In patent US20260108447A1, “RESIDENT-SKIN-FLORA-IMPROVING AGENT AND EXTERNAL-USE COMPOSITION FOR SKIN” (NIHON SHOKUHIN KAKO CO., LTD., priority 2022, published 2026):

Columns and labels:
Assay in all cases: Change in bacteria count (bacterial turbidity OD660) when the sugar is added to the culture medium
Format in all cases: cell-based
[1] = system: Staphylococcus hominis (JCM31912); conditions: 24 hours; for effect for promoting proliferation: test example 5, FIG. 5, sentence names no bacterium, taken as S. hominis; for proliferation of S. hominis, relative value (percentage relative to non-sugar-added group): test example 4, OD660, FIG. 4
Description: (§1) An investigation was conducted in regard to a change in bacteria count when the α-gluco-oligosaccharide or the β-gluco-oligosaccharide prepared as described above was added to a culture medium and culturing was carried out in culturing of the various bacteria indicated in table 3 as resident skin bacteria under respectively suitable culture conditions.
(§2) Specifically, the various bacteria were cultured overnight using respectively suitable culture media to prepare preculture solutions, and the α-gluco-oligosaccharide or the β-gluco-oligosaccharide prepared as described above was added to 3 mL of fresh culture media so as to reach a final concentration of 0.5 (w/v) %, whereupon 0.03 ml of the preculture liquids was mixed thereinto and cultured for 24 hours, and the bacterial turbidity (OD660) after culturing was measured. Additionally, glucose was added as a sugar to a culture medium and similar tests were performed to arrive at a comparative control. The results were expressed as relative values (percentage relative to non-sugar-added group), where 100% indicated the bacterial turbidity when sterilized ultrapure water was added instead of any sugar.
(§3) The effect for promoting proliferation of S. hominis, S. aureus, C. acnes, C. xerosis, or M. luteus was evaluated in the same manner as in test example 1, except that sophorose prepared at high purity as described above was used as the β-gluco-oligosaccharide composed of disaccharides, and the amount of the sophorose added to the culture medium was set to 0.1 (w/v) %, 0.5 (w/v) %, or 1.0 (w/v) % in terms of final concentration.
(§4) The effect for promoting proliferation of S. hominis, S. aureus, C. acnes, C. xerosis, or M. luteus was evaluated in the same manner as in test example 1, except that laminaribiose and gentiobiose prepared at high purity as described above, as well as commercially available cellobiose (Nacalai Tesque, Inc.), were used as the β-gluco-oligosaccharide composed of disaccharides, and the amount of the β-gluco-oligosaccharide added to the culture medium was set to 0.5 (w/v) % in terms of final concentration.

[2] = system: Micrococcus luteus (JCM1464); conditions: 24 hours; for proliferation of M. luteus, relative value (percentage relative to non-sugar-added group): test example 5, final concentration 0.5 (w/v) %, OD660, FIG. 5
Description: as §1, §2, §3, §4

[3] = system: Staphylococcus epidermidis (JCM20345); conditions: 24 hours
Description: as §1, §2
Specifically, the effect for promoting proliferation of S. epidermidis was evaluated in the same manner as in test example 1, except that sophorose, laminaribiose, or gentiobiose prepared at high purity as described above was used as the sugar to be added to the culture medium, and the amount of the sugar added to the culture medium was set to 0.3 (w/v) % or 0.5 (w/v) % in terms of the final concentration.
The effect for promoting proliferation of S. epidermidis was evaluated in the same manner as in test example 2, except that sophorose prepared at high purity as described above was used as the β-gluco-oligosaccharide composed of disaccharides, and the amount of the sophorose added to the culture medium was set to 0.1 (w/v) % or 1.0 (w/v) % in terms of the final concentration.

[4] = system: Staphylococcus aureus (ATCC6538); conditions: 24 hours
Description: as §1, §2, §3, §4

[5] = system: Cutibacterium acnes (JCM6425); conditions: test example 4; at any of 0.1, 0.5, 1.0 (w/v) %, 24 hours; FIG. 4
Description: as §1, §2, §3, §4

[6] = system: Corynebacterium xerosis (JCM1971); conditions: test example 4; at any of 0.1, 0.5, 1.0 (w/v) %, 24 hours; FIG. 4
Description: as §1, §2, §3, §4

[7] = final concentration 0.5 (w/v) %
[8] = test example 2, high-purity sugar 0.3 (w/v) % or 0.5 (w/v) % final concentration, FIG. 2
[9] = test example 4, at any of 0.1, 0.5, 1.0 (w/v) %, FIG. 4

Row | Molecule | effect for promoting proliferation [1, 7] | proliferation of M. luteus, relative value (percentage relative to non-sugar-added group) [2] [%] | effect for promoting proliferation of S. epidermidis [3, 8] | proliferation of S. aureus, relative value (percentage relative to non-sugar-added group) ([4]; test example 5, final concentration 0.5 (w/v) %, OD660, FIG. 5) [%] | effect for promoting proliferation of S. epidermidis ([3]; test example 3, final concentration 0.1 (w/v) %, FIG. 3) | effect for promoting proliferation of S. epidermidis, compared with 0.5 (w/v) % of test example 2 ([3]; test example 3, final concentration 1.0 (w/v) %, FIG. 3) | proliferation of S. hominis, relative value (percentage relative to non-sugar-added group) [1, 7] [%] | proliferation of S. hominis, relative value (percentage relative to non-sugar-added group) ([1]; final concentration 1.0 (w/v) %) [%] | effect for promoting proliferation of C. acnes relative to the control [5] | effect for promoting proliferation of C. xerosis relative to the control [6] | effect for promoting proliferation of M. luteus relative to the control [2, 9] | effect for promoting proliferation of S. aureus relative to the control [4, 9]
1 | O=C[C@H](O)[C@@H](O)[C@H](O[C@@H]1O[C@H](CO)[C@@H](O)[C@H](O)[C@H]1O)[C@H](O)CO [cellobiose] | not confirmed to yield an effect for promoting proliferation | 111.7 |  |  |  |  |  |  |  |  |  | 
2 | OC[C@H]1O[C@@H](O[C@H]2[C@H](O)[C@@H](CO)OC(O)[C@@H]2O)[C@H](O)[C@@H](O)[C@@H]1O (some centres unmarked) [laminaribiose, reference compound] | not confirmed to yield an effect for promoting proliferation |  | did not exhibit an effect for promoting proliferation | 108.5 |  |  |  |  |  |  |  | 
3 | O=C[C@H](O[C@@H]1O[C@H](CO)[C@@H](O)[C@H](O)[C@H]1O)[C@@H](O)[C@H](O)[C@H](O)CO [sophorose, 2-O-β-D-glucopyranosyl-D-glucose] |  |  | prominent effect for promoting proliferation |  | exhibit the effect for promoting proliferation | no great difference was observed | 118.0 | 118.8 | no effect for promoting proliferation | no effect for promoting proliferation | no effect for promoting proliferation | no effect for promoting proliferation
4 | gentiobiose | not confirmed to yield an effect for promoting proliferation | 121.9 | did not exhibit an effect for promoting proliferation |  |  |  |  |  |  |  |  | 
